According to patent publication US20020127536A1, “Mitochondrial assay” (priority 2001, published 2002):
“Also recorded” adds a separate entry of the source.

Experiments:
[1] = tested on: isolated rat liver mitochondria; assay: Polarographic assay of basal respiration: uncoupling action; assay type: biochemical; settings: for Uncoupling: 500 μM drug, isolated rat liver mitochondria, qualitative; for Uncoupling action (in words): drug added to rat liver mitochondria respiring in the basal state
Text: Normally electron transport proceeds at a slow basal rate in the presence of an oxidizable substrate unless the H^+ gradient is dissipated by a need for ATP synthesis. However, if the H^+ gradient is dissipated by the addition of a chemical that alters membrane permeability to H^+, respiration will be stimulated unproductively, that is, without concomitant ATP synthesis, so that energy is wasted. […] If respiration (oxygen consumption) is stimulated, uncoupling is inferred.
The second test determines whether the drug uncouples electron transport from ATP synthesis. Normally, in these preparations, electron transport will proceed at a slow basal rate in the presence of an oxidizable substrate, unless the H^+ gradient is dissipated by a need for ATP synthesis. However, if the H^+ gradient is dissipated by the addition of a drug that alters membrane permeability to H^+, respiration will be stimulated unproductively (i.e., without concomitant ATP synthesis) so that energy is wasted. […] If respiration (e.g., oxygen consumption) is stimulated, uncoupling is inferred.
Normally electron transport proceeds at a slow basal rate in the presence of an oxidizable substrate unless the H^+ gradient is dissipated by a need for ATP synthesis. However, if the H^+ gradient is dissipated by the addition of a drug that alters membrane permeability to H^+ , respiration will be stimulated unproductively without concomitant ATP synthesis so that energy is wasted. Haloperidol, quetiapine, risperidone, and clozapine were added to mitochondria respiring in the basal state (FIG. 3). If respiration (i e., oxygen consumption) is stimulated, uncoupling is inferred.

[2] = tested on: ATP synthetase; assay: Polarographic assay of ADP-stimulated coupled versus uncoupled respiration: inhibition of ATP synthetase; assay type: biochemical; settings: 500 μM drug; isolated rat liver mitochondria; qualitative
Procedure: (§1) When coupling is intact, basal respiration will be stimulated by the addition of ADP to invoke ATP synthesis, as electron transport is stepped up to replace the H^+ gradient that is used by the ATP synthetase enzyme. If the drug inhibits this coupled respiration rate, the inhibition could be due either to inhibition of the ATP synthetase itself or to inhibition of the electron transport rate that supports the ATP synthesis. To detect which is inhibited, the drug is also tested for inhibition of maximal electron transport rates in the presence of a known uncoupler. Inhibition of the coupled, but not the uncoupled respiration rate pinpoints the inhibition to the ATP synthetase or to one of the supporting transport processes such as the phosphate or ADP/ATP transporters.
as §1, with “The third test examines whether the drug inhibits ATP synthetase. When” for “When”, “the difference,” for “which is inhibited,”, “uncoupler, as in the first test described supra.” for “uncoupler.”, “coupled” for “coupled,”, “as” for “as the”
When coupling is intact, basal respiration is stimulated by the addition of ADP which stimulates ATP synthesis, as electron transport is stepped up to re-establish the H^+ gradient that is used by the ATP synthetase enzyme. If the drug inhibits this coupled respiration rate, the inhibition could be due either to inhibition of the ATP synthetase itself or to inhibition of the electron transport rate that supports the ATP synthesis. Haloperidol, quetiapine, risperidone, and clozapine were tested for inhibition of maximal electron transport rates in the presence and absence of a known uncoupler (FIG. 4). Inhibition of the coupled, but not the uncoupled respiration rate pinpoints the inhibition to the ATP synthetase or to one of the supporting transport processes such as phosphate or ADP/ATP transporters.

[3] = tested on: respiratory complex I; settings: glutamate+malate; for El. Transport Site I: 500 μM drug, isolated rat liver mitochondria, qualitative; for Inhibition of electron transport at respiratory complex I (in words): rat liver mitochondria, 2,4-dinitrophenol added, preliminary data
Procedure: A known uncoupler (2,4-dinitrophenol) was added in the presence of an oxidizable substrate to elicit maximal electron transport rates, measured as the maximal rate of oxygen consumption; a slower rate in the presence of the drug indicates inhibition somewhere in the electron transport chain. The assay is performed with different substrates that donate electrons at either respiratory complex I (glutamate+malate) or at complex II (succinate) or through electron-transferring flavoprotein (ETF) (not shown) to gain information about site-specific inhibition.
This first test answers the questions of whether the compound under study inhibits electron transport, and if so, whether inhibition involves specific respiratory enzyme complexes in the electron transport chain. A known uncoupler of oxidative phosphorylation (e.g., 2,4-dinitrophenol) is added to the preparation to elicit maximal electron transport rates, measured as the rate of oxygen consumption. A slower rate in the presence of the drug indicates inhibition somewhere along the electron transport chain. The test is performed with different substrates that donate electrons at either respiratory complex I (glutamate and malate) or at complex II (succinate) or via electron-transferring flavoprotein (ETF) to gain information about site-specific inhibition.
(§2) Mitochondrial respiration is measured polarographically using a Clark oxygen electrode. To test for drug effect, an appropriate concentration of drug is introduced at the beginning of the assay, prior to the addition of substrate. The test substance (e.g., drug) is thus present continuously in the assays as the basal, coupled and uncoupled rates are successively determined. The solvent in which the drug is dissolved is tested alone as the control.
Stimulation of basal respiration by the drug indicates uncoupling. If inhibition of the coupled rate is observed, this could be due to inhibition of ATP synthetase function, or to inhibition of electron transport. If the addition of uncoupler fails to relieve the inhibition, then the drug is inhibiting electron transport; and if the addition of uncoupler relieves the inhibition, then the drug is inhibiting ATP synthetase function.
Information about site specific electron transport inhibition can be obtained with this assay by using substrates that donate electrons to the respiratory chain at different branch sites. For example, by separately including either succinate which donates to complex II or glutamate+malate which donates electrons to complex I, or other organic acids which donate through electron-transferring flavoprotein (ETF).
(§3) Rates were measured as the rate of oxygen consumption. A slower rate in the presence of the drug indicates inhibition somewhere in the electron transport chain. The tests were performed with different substrates that donate electrons at either respiratory complex I (glutamate+malate) or at complex II (succinate) to gain information about site-specific inhibition.

[4] = tested on: respiratory complex II; assay: Polarographic assay of uncoupled (2,4-dinitrophenol) maximal respiration with succinate: inhibition of electron transport at site II; assay type: biochemical; settings: 500 μM drug, isolated rat liver mitochondria, qualitative
[5] = tested on: electron transport chain; assay: Polarographic assay of maximal electron transport rate (oxygen consumption), overall inhibition; assay type: biochemical; settings: rat liver mitochondria, maximal rate of oxygen consumption with 2,4-dinitrophenol
Procedure: A known uncoupler (2,4-dinitrophenol) was added in the presence of an oxidizable substrate to elicit maximal electron transport rates, measured as the maximal rate of oxygen consumption; a slower rate in the presence of the drug indicates inhibition somewhere in the electron transport chain.
A known uncoupler of oxidative phosphorylation (e.g., 2,4-dinitrophenol) is added to the preparation to elicit maximal electron transport rates, measured as the rate of oxygen consumption. A slower rate in the presence of the drug indicates inhibition somewhere along the electron transport chain. The test is performed with different substrates that donate electrons at either respiratory complex I (glutamate and malate) or at complex II (succinate) or via electron-transferring flavoprotein (ETF) to gain information about site-specific inhibition.
as §2, §3

[6] = tested on: mitochondrial respiratory complex I; settings: literature statement; cited from earlier work

SMILES	Stimulation of basal respiration ([1]; known uncoupler, rat liver mitochondria in basal state with oxidizable substrate)	ATP Synthesis [2]	El. Transport Site I [3]	Inhibition of electron transport at respiratory complex I (in words) [3]	El. Transport Site II [4]	Uncoupling [1]	Uncoupling action (in words) [1]	Inhibition of electron transport, overall (in words) [5]	Inhibition of mitochondrial complex I (in words) [6]	Inhibition of electron transport, overall (in words) ([5]; listed as thioridazine)
O=[N+]([O-])c1ccc(O)c([N+](=O)[O-])c1 [2,4-dinitrophenol]	6-10 fold									
CN(C)CCCN1c2ccccc2Sc2ccc(Cl)cc21 [Chlorpromazine]		−	+++	inhibited electron transport specifically at respiratory complex I	+	++	more potent than clozapine	potent inhibitors of electron transport		
O=C(CCC[n+]1ccc(-c2ccc(Cl)cc2)cc1)c1ccc(F)cc1 [HPP^+]									potent inhibitor of mitochondrial complex I	
O=C(CCCN1CCC(O)(c2ccc(Cl)cc2)CC1)c1ccc(F)cc1 [Haloperidol]		−	++	inhibited electron transport specifically at respiratory complex I	−	−		potent inhibitors of electron transport		
C[n+]1ccc(-c2ccccc2)cc1 [MPP^+, 1-methyl-4-phenylpyridinium]									potent and specific inhibitor of mitochondrial respiratory complex I	
OCCOCCN1CCN(C2=Nc3ccccc3Sc3ccccc32)CC1 [Quetiapine]		−	+	had a slight effect and was also specific for complex I	−	+	more potent than clozapine	very mild effects		
Cc1nc2n(c(=O)c1CCN1CCC(c3noc4cc(F)ccc34)CC1)CCCC2 [Risperidone]		−	+++		+	++	more potent than clozapine	inhibited electron transport markedly but not specifically at either complex I or II; also recorded: potent inhibitors of electron transport		
CSc1ccc2c(c1)N(CCC1CCCCN1C)c1ccccc1S2 (stereo not drawn) [Thioridazine]		−	+++		+	++	more potent than clozapine	inhibited electron transport markedly but not specifically at either complex I or II		potent inhibitors of electron transport
